Measurements published in patent US9068971B2, “Methods for treating and/or limiting development of diabetes” (BioCrine AB, priority 2012, dated 2015).
“Also recorded” adds a separate entry of the source.

Tests used:
CaV1 channels [1] = assay: Cell-attached single channel patch-clamp of unitary CaV1 channel currents in mouse islet β cells; format: cell-based; settings: ApoCIII 20 μg/ml overnight versus control vehicle
Method: (§1) Islets of Langerhans were isolated from adult male and female mice and dispersed into single β cells. RINm5F cells at about 70% confluency were trypsinized. The resultant suspension of cells was seeded into Petri dishes or 12-well plates. The cells were cultivated in RPMI 1640 medium supplemented with 10% fetal bovine serum, 2 mM L-glutamine, and 100 U/100 μg/ml penicillin/streptomycin (Invitrogen, Carlsbad, Calif.) and maintained at 37° C. in a humidified 5% CO2 incubator. They were grown overnight and then subjected to siRNA transfection. For patch-clamp analysis, cells underwent overnight treatment with ApoCIII, the PKA inhibitor H-89 (Calbiochem, La Jolla, Calif.), the PKC inhibitor calphostin C (Calbiochem), the Src kinase inhibitor PP2 (Calbiochem) and the CaV1 channel blocker nimodipine (Calbiochem) in RPMI medium at final concentrations of 20 μg/ml, 0.5 μM, 0.1 μM, 0.1 μM and 5 μM, respectively. ApoCIII was dissolved in 0.1% triflouroacetic acid (TFA) to make a stock solution of 1 mg/ml, whereas H-89, calphostin C, PP2 and nimodipine were dissolved in dimethyl sulfoxide (DMSO) to form stock solutions of 5 mM, 1 mM, 1 mM and 10 mM, respectively. 0.002% TFA and/or 0.03% DMSO were used as vehicle controls.
(§2) Mouse islet cells and RINm5F cells following different treatments were subjected to single channel and whole-cell patch-clamp measurements. Cell-attached and perforated whole-cell patch-clamp configurations were employed. Electrodes were made from borosilicate glass capillaries, fire-polished and coated with Sylgard close to their tips. Some of them were filled with a solution containing (in mM) 110 BaCl2, 10 TEA-Cl, and 5 HEPES (pH 7.4 with Ba(OH)2) for single channel measurements. Others were filled with a solution composed of (in mM) 76 Cs2SO4, 1 MgCl2, 10 KCl, 10 NaCl, and 5 HEPES (pH 7.35 with CsOH), as well as amphotericin B (0.24 mg/ml) for whole-cell current recordings. Electrode resistance ranged between 4 and 6 MΩ when they were filled with electrode solutions and immersed in bath solutions. The electrode offset potential was corrected in bath solutions prior to gigaseal formation. Single-channel recordings were performed with cells bathed in a depolarizing external recording solution, containing (in mM) 125 KCl, 30 KOH, 10 EGTA, 2 CaCl2, 1 MgCl2, and 5 HEPES-KOH (pH 7.15). This solution was used to bring the intracellular potential to 0 mV. […] Single channel and whole-cell currents were recorded with an Axopatch 200B amplifier (Molecular Devices, Foster City, Calif.) and an EPC-9 patch clamp amplifier (HEKA Elektronik, Lambrecht/Pfalz, Germany), respectively, at room temperature (about 22° C.). […]
(§3) All data are presented as mean±SEM. Statistical significance was determined by one-way ANOVA, followed by least significant difference (LSD) test. […]

β cell CaV channels [2] = assay: Perforated whole-cell patch-clamp of Ca2+ currents in RINm5F cells; format: cell-based, rat; settings: for effect on ApoCIII-induced hyperactivation of β cell CaV channels (enhancement of whole-cell Ca2+ currents): ApoCIII 20 μg/ml overnight with inhibitor cotreatment or after siRNA pretransfection; for whole-cell Ca2+ current density under basal conditions, inhibitor(s) versus vehicle: in the absence of ApoCIII; for whole-cell Ca2+ current density, ApoCIII alone compared with ApoCIII plus inhibitor(s): ApoCIII 20 μg/ml
Method: as §1
Two pairs of 21-mer siRNA duplexes targeting the rat β1 integrin (β1 integrin siRNA #1, ID127971 and (31 integrin siRNA #2, ID127972) and SRBI (ID128929) were designed and chemically synthesized by Applied Biosystems/Ambion (Austin, Tex.). Their sequences were subjected to BLAST search to ensure their specificity. Silencer® Select Negative Control siRNA (4390843), not targeting any gene product, and Silencer® Select GAPDH Positive Control siRNA (4390849), efficiently silencing GAPDH in human, mouse, and rat cells, were purchased from Applied Biosystems/Ambion (Austin, Tex.). RINm5F cells were reversely transfected with Lipofectamine™ RNAiMAX. Briefly, negative control siRNA, β1 integrin siRNA #1, β1 integrin siRNA #2 or SRBI siRNA was mixed with Lipofectamine™ RNAiMAX followed by 20-min incubation at room temperature. Subsequently, cells were added to the siRNA/Lipofectamine™ RNAiMAX mixtures followed by gentle agitation and kept at 37° C. in a humidified 5% CO2 incubator. After 72 h, the transfected cells were grown to about 70% confluency and subjected to immunoblot assay or different treatments.
Mouse islet cells and RINm5F cells following different treatments were subjected to single channel and whole-cell patch-clamp measurements. Cell-attached and perforated whole-cell patch-clamp configurations were employed. Electrodes were made from borosilicate glass capillaries, fire-polished and coated with Sylgard close to their tips. Some of them were filled with a solution containing (in mM) 110 BaCl2, 10 TEA-Cl, and 5 HEPES (pH 7.4 with Ba(OH)2) for single channel measurements. Others were filled with a solution composed of (in mM) 76 Cs2SO4, 1 MgCl2, 10 KCl, 10 NaCl, and 5 HEPES (pH 7.35 with CsOH), as well as amphotericin B (0.24 mg/ml) for whole-cell current recordings. Electrode resistance ranged between 4 and 6 MΩ when they were filled with electrode solutions and immersed in bath solutions. The electrode offset potential was corrected in bath solutions prior to gigaseal formation. Single-channel recordings were performed with cells bathed in a depolarizing external recording solution, containing (in mM) 125 KCl, 30 KOH, 10 EGTA, 2 CaCl2, 1 MgCl2, and 5 HEPES-KOH (pH 7.15). This solution was used to bring the intracellular potential to 0 mV. For perforated whole-cell current measurements, the cells were bathed in a solution containing (in mM) 138 NaCl, 5.6 KCl, 1.2 MgCl2, 10 CaCl2, 5 HEPES (pH 7.4). Single channel and whole-cell currents were recorded with an Axopatch 200B amplifier (Molecular Devices, Foster City, Calif.) and an EPC-9 patch clamp amplifier (HEKA Elektronik, Lambrecht/Pfalz, Germany), respectively, at room temperature (about 22° C.). […]

CaV1.3 = assay: Immunoblot of CaV1.3 subunits in RINm5F cell homogenates; format: cell-based, rat; settings: overnight ApoCIII
Method: (§4) Islets of Langerhans were isolated from adult male and female mice and dispersed into single β cells. RINm5F cells at about 70% confluency were trypsinized. The resultant suspension of cells was seeded into Petri dishes or 12-well plates. The cells were cultivated in RPMI 1640 medium supplemented with 10% fetal bovine serum, 2 mM L-glutamine, and 100 U/100 μg/ml penicillin/streptomycin (Invitrogen, Carlsbad, Calif.) and maintained at 37° C. in a humidified 5% CO2 incubator. They were grown overnight and then subjected to siRNA transfection. […]
(§5) RINm5F cells following different treatments were lysed in a lysis buffer (pH 7.5) consisting of 50 mM HEPES, 150 mM NaCl, 1 mM EGTA, 1 mM EDTA, 10% glycerol, 1% triton X-100, 1 mM PMSF and a protease inhibitor cocktail (Roche Diagnostics, Mannheim, Germany). […] The protein concentration of the resulting samples was determined with Bio-Rad protein assay reagent (Bio-Rad, Hercules, Calif.). […]
as §3

CaV1 channels [3] = assay: Cell-attached single channel patch-clamp of unitary CaV1 channel currents in RINm5F cells; format: cell-based, rat; settings: ApoCIII 20 μg/ml overnight versus vehicle solution
Method: as §1, §2, §3

β cell CaV channels [4] = settings: mouse islet β cell; previous work; cited from earlier work
CaV1.2 = assay: Immunoblot of CaV1.2 subunits in RINm5F cell homogenates; format: cell-based, rat; settings: overnight ApoCIII
Method: as §4, §5, §3

SRBI [5] = target: T1, SRBI (Homo sapiens, UniProt Q8WTV0); settings: cited from earlier work
T1 sequence (Q8WTV0 1-509 isoform Q8WTV0-2): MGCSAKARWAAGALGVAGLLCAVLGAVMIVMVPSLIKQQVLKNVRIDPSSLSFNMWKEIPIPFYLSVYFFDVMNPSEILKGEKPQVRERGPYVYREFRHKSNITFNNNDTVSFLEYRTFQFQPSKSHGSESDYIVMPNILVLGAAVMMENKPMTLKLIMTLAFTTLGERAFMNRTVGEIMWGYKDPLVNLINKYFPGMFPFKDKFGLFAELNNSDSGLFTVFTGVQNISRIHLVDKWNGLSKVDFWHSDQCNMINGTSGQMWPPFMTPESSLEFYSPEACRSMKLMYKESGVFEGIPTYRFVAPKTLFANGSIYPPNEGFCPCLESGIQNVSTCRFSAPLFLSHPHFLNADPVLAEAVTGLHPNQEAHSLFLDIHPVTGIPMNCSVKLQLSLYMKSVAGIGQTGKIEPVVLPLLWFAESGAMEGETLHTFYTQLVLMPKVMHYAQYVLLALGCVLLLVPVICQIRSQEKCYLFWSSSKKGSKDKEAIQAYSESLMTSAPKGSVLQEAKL

SRBI [6] = settings: cited from earlier work
[7] = overnight, H-89 0.5 μM, calphostin C 0.1 μM, PP2 0.1 μM

ApoCIII: protein comprising the amino acid sequence shown in SEQ ID NO:2 (Human), SEQ ID NO:4 (Rat) or SEQ ID NO:6 (Macaque)
mean closed time of unitary CaV1 channels (CaV1 channels [1]): significantly shorter
mean open time of unitary CaV1 channels (CaV1 channels [1]): significantly greater
open probability of unitary CaV1 channels (CaV1 channels [1]): significantly greater
average number of unitary CaV1 channels (CaV1 channels [1]; plasma membrane patches): significantly greater
whole-cell Ca2+ current density, ApoCIII group versus control group (β cell CaV channels [2]; no voltage range printed (FIG. 4d)): Significantly higher
whole-cell Ca2+ current density, ApoCIII-treated versus vehicle-treated control cells (β cell CaV channels [2]; voltage range 10-50 mV): significantly higher; also recorded: increased significantly; also recorded: significantly elevated; also recorded: significantly increased
whole-cell Ca2+ current density, ApoCIII group versus control group (β cell CaV channels [2]; voltage range from 10 to 30 mV): significantly higher
relative abundance of CaV1.3 subunits, ApoCIII versus vehicle incubation (CaV1.3): no significant difference
channel number of CaV1 channels (CaV1 channels [3]): significantly increased
mean closed time of CaV1 channels (CaV1 channels [3]): shortened
mean open time of CaV1 channels (CaV1 channels [3]): prolonged
open probability of CaV1 channels (CaV1 channels [3]): elevated
whole-cell Ca2+ currents after ApoCIII incubation (β cell CaV channels [4]): significantly enhances
relative abundance of CaV1.2 subunits, ApoCIII versus vehicle incubation (CaV1.2): no significant difference

O=S(=O)(NCCNC/C=C/c1ccc(Br)cc1)c1cccc2cnccc12 [H-89]
effect on ApoCIII-induced hyperactivation of β cell CaV channels (enhancement of whole-cell Ca2+ currents) (β cell CaV channels [2]): marginally reduced
whole-cell Ca2+ current density under basal conditions, inhibitor(s) versus vehicle (β cell CaV channels [2]): did not significantly influence
whole-cell Ca2+ current density, ApoCIII alone compared with ApoCIII plus inhibitor(s) (β cell CaV channels [2]; [7]): did not significantly differ
whole-cell Ca2+ current density, ApoCIII plus inhibitor(s) compared with control cells (β cell CaV channels [2]; overnight, nimodipine 5 μM (control = Nim alone), H-89 0.5 μM, calphostin C 0.1 μM, PP2 0.1 μM): did not significantly differ

CC(C)(C)OC(=O)N1CCN(c2ccc(NC(=O)c3cc([N+](=O)[O-])ccc3Cl)cc2)CC1 [R-138329, N-[4-(4-tert-Butoxycarbonylpiperazin-1-yl)phenyl]-(2-chloro-5-nitrophenyl)carboxamide]
SRBI receptor activity (SRBI [5]): block

calphostin C
effect on ApoCIII-induced hyperactivation of β cell CaV channels (enhancement of whole-cell Ca2+ currents) (β cell CaV channels [2]): does not affect
whole-cell Ca2+ current density under basal conditions, inhibitor(s) versus vehicle (β cell CaV channels [2]): similar
whole-cell Ca2+ current density, ApoCIII alone compared with ApoCIII plus inhibitor(s) (β cell CaV channels [2]; [7]): no difference
whole-cell Ca2+ current density, ApoCIII/CalpC versus vehicle-treated control cells (β cell CaV channels [2]; voltage range from 20 to 50 mV): increased significantly

interferon alpha
SRBI expression (SRBI [6]): inhibit

CC(C)(C)n1nc(-c2ccc(Cl)cc2)c2c(N)ncnc21 [PP2]
effect on ApoCIII-induced hyperactivation of β cell CaV channels (enhancement of whole-cell Ca2+ currents) (β cell CaV channels [2]): tendency to decrease
whole-cell Ca2+ current density under basal conditions, inhibitor(s) versus vehicle (β cell CaV channels [2]): similar
whole-cell Ca2+ currents, ApoCIII and PP2 cotreatment versus vehicle-treated control cells (β cell CaV channels [2]; voltage range 20-40 mV): significantly larger
